# “Also recorded” adds a separate entry of the source.
# Key:
# Format in all cases: cell-based, human
# AD293 (HEK) cells = assay: Morphological changes / toxicity in AD293 (HEK) cells
# Experimental: The studies on morphological changes induced by sodium butyrate (5) and But4ManNAc (1) were performed following a reported procedure (45). Briefly, HeLa cells (200,000 cells per well in a 6-well plate) were plated and allowed to form monolayers. After 24 h, the supernatant was aspirated, fresh medium (4.0 mL) was added and treated with either ethanol (20 μL (0.5%), control), 5 (5.0 mM), or 1 (250 μM). For the AD 293 (HEK) cells 2.0×10^6 cells in 10 mL of medium (100 mm tissue culture dishes) were plated and treated, immediately after plating, with either ethanol (50 μL, control), 5 (5.0 mM), or 1 (250 μM). Images were acquired at various time intervals under bright field using a Nikon Eclipse TE200 inverted microscope equipped with a DXM 1200 digital camera.
# Jurkat cells [1] = assay: Flow cytometry analysis of cell cycle status (PI/RNase A)
# Experimental: The cell cycle arrest induced by butyrate analogs was studied following the standard protocol (49). Briefly, Jurkat cells (2.3×10^5 cells/mL) were incubated with various concentrations of 1 (0, 25, 50, 75, 100, 150 and 200 μM); 2 (200 μM); 3 (200 μM); and 4 (200 μM) for five days. The cells were then harvested, counted, washed twice with PBS, re-suspended in PBS (500 μL), added to a cold solution of 78% aqueous ethanol (4.5 mL) using a glass Pasteur pipette and kept at 2.0° C. for at least 24 h. The fixed cells were centrifuged twice to remove the ethanol completely, re-suspended in propidium iodide (PI)/ribonuclease A (RNase A) staining buffer (BD Pharmingen, Catalog No. 550825, San Diego, Calif.) (500 μL for 1.0×10^6 cells), incubated at 37° C. for 15 min and analyzed by flow cytometry. The cellular aggregates were excluded from single cell populations using an area-width plot (FL2—PT fluorescence) for the cell cycle status determination. At least 10,000 gated events were counted for each determination.
# Jurkat cells (2.5×10^5 cells/mL) were incubated with either ethanol (0.2%) or 1 (100 μM or 200 μM). Aliquots of cell suspensions were taken on day 0 and days 2-6, washed with PBS (twice) and fixed in 75% ethanol at 2.0° C. for at least 48 h. The cells were stained with PI/RNase staining buffer and analyzed by flow cytometry as given above.
# Jurkat cells [2] = assay: Cell viability assay (trypan blue exclusion); details: 200 μM
# Experimental: Jurkat cells (2.0×10^5 cells/mL) were seeded with 1-4 at 200 μM in 6-well T. C. plates. Aliquots of cell suspension (20 μL) were removed on a daily basis diluted with either PBS (20 μL) or trypan blue solution (20 μL) and cell viability was determined by using the standard trypan blue exclusion method; three replicate counts were taken for each condition.
structure (smiles),measurement,setting,value
"CCCC(=O)OC[C@H]1OC(OC(=O)CCC)[C@@H](NC(C)=O)[C@@H](OC(=O)CCC)[C@@H]1OC(=O)CCC (stereo partly drawn) [compound 1, 2-Acetylamino-2-deoxy-1,3,4,6-tetra-O-butanoyl-α,β-D-mannopyranoside]",apoptosis / toxicity in AD293 cells,"AD293 (HEK) cells; 2 days, 1 at 250 μM, 5 at 5.0 mM",considerable degree of apoptosis; also recorded: toxicity
same,fold lower concentration for cellular responses than sodium n-butyrate,AD293 (HEK) cells; AD293 cells,~20 ×
same,cell cycle status at lower concentrations,"Jurkat cells [1]; Jurkat cells, 0-75 μM, 5 days",stepwise decrease in G0/G1 accumulation with a concomitant increase in cells at the G2/M stage
same,population of apoptotic cells (DNA content),"Jurkat cells [1]; Jurkat cells, 0-200 μM, five days",dose dependent increase in population of apoptotic cells
same,"cell cycle status, time course","Jurkat cells [1]; Jurkat cells, 100 μM, until day 6",strong cell cycle inhibition at the G2/M stage
same,"cell cycle status, time course","Jurkat cells [1]; Jurkat cells, 200 μM",accumulated more rapidly at the G2/M stage
same,cell cycle status / apoptosis,"Jurkat cells [1]; Jurkat cells, 200 μM, 5 days",majority of cells treated with 1 appeared to be apoptotic
same,cells with DNA in the sub G0 range,"Jurkat cells [1]; Jurkat cells, 200 μM, day 4",substantial proportion
same,cells with DNA in the sub G0 range,"Jurkat cells [1]; Jurkat cells, 200 μM, day 6",almost complete
same,concentration above which non-viable cells (sub G0) accumulated,"Jurkat cells [1]; Jurkat cells, 5 days",exceeded 75 μM
same,apoptosis versus cell cycle arrest (summary),Jurkat cells [1]; human cancer cells,efficiently induced apoptosis
same,reduced cell viability in trypan blue assay,Jurkat cells [2],exhibited reduced cell viability

# Reference: patent US9315532B2, “Fatty acid carbohydrate hybrid molecules as therapeutic agents and methods thereof” (The Johns Hopkins University, priority 2005, dated 2016)
